The text below walks through data of patent US8222417B2, “Compound having 11β-HSD1 inhibitory activity” (Taisho Pharmaceutical Co., Ltd, priority 2007, dated 2012).

Structures can show the parent of a compound that is named as a salt.

What is called IC50 is the point on the concentration scale where inhibition reaches its midpoint. A high value points to weaker potency in that assay.

The target in this assay is T1, 11β-HSD1 (Homo sapiens, UniProt P28845).
T1 construct: human liver microsome (enzyme source, Tissue Transformation Technologies); tissue Tissue Transformation Technologies; host or cells: human liver microsomes
T1 sequence (P28845 whole entry): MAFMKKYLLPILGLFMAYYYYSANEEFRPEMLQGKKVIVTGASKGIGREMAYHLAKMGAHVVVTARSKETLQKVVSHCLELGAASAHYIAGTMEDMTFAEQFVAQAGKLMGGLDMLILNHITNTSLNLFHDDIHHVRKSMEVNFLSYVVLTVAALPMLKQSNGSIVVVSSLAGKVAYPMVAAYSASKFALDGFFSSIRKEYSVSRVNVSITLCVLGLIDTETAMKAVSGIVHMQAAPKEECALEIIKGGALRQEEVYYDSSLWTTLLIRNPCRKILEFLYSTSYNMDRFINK
Briefly: 11β-HSD1 inhibition test (human liver microsome, HTRF cortisol detection). Format: biochemical. To be noted: human liver microsome as enzyme source; cortisone 100 nM; 20° C., 80 minutes; generated cortisol quantified by HTRF. How it is done: Test Example [11β-HSD1 Inhibition Test]
Test Compounds were Evaluated as Follows.
11β-HSD1 enzyme reaction was performed in a reaction solution of 100 μl total volume using 96-well polypropylene microplates. The reaction solution was prepared in 30 mM Tris-HCl (pH 7.4)/1 mM EDTA buffer to contain NADPH at a final concentration of 100 μM, G6P at a final concentration of 1 mM, human liver microsome (enzyme source, Tissue Transformation Technologies) at a final concentration of 0.8 μg/ml and 10 μl of a test compound dissolved in DMSO. The enzyme reaction was initiated by addition of cortisone at a final concentration of 100 nM. After incubation at 20° C. for 80 minutes, 10 μl of 1 mM 18β glycyrrhetinic acid, which is a non-specific inhibitor, was added to stop the reaction. Next, the amount of generated cortisol was quantified with a detection kit (Sceti Medical Labo K.K., Japan) according to the HTRF (Homogeneous Time-Resolved Fluorescence) method. This system detects fluorescence resonance energy transfer between europium-labeled anti-cortisol antibody and XL665-labeled cortisol. Upon addition of unlabeled cortisol, binding signals will be attenuated due to competitive reaction. Based on this principle, the amount of cortisol generated by the enzyme reaction was evaluated using a standard curve obtained from samples with known concentrations of cortisol included in the kit. The HTRF reaction was performed in 96-well half area microplates as follows: to 30 μl enzyme reaction solution, an anti-cortisol antibody solution (15 μl) and an XL665-labeled cortisol solution (15 μl) included in the kit were added, and the plates were vortexed at room temperature for 1 hour and further allowed to stand at 20° C. for 1 hour. 40 μl of this reaction solution was transferred to 384-well microplates and measured for its fluorescence. 18β Glycyrrhetinic acid was added to wells before initiation of the enzyme reaction and the amount of cortisol generated in these wells was used as a background level. Test compounds were evaluated using serial dilutions at a common ratio of 3 to calculate their IC50 values, assuming that the amount of cortisol generated in wells containing no test compound was set to 100% enzyme activity.
On the technique in general: Liver microsomes are a subcellular fraction often used to study metabolism.
The compound `O=C(N[C@H]1C2CC3CC1C[C@](O)(C3)C2)N1CCCc2c(F)cccc21` [Compound 1, 5-fluoro-N-(E-1-hydroxyadamantan-4-yl)-3,4-dihydroquinoline-1(2H)-carboxamide] registered a 50% inhibitory concentration (IC50) of 1 nM. That is a single-digit nanomolar value.

Take `O=C(N[C@H]1C2CC3CC1C[C@](O)(C3)C2)N1CCCc2cc(F)ccc21` [Compound 2, 6-fluoro-N-(E-1-hydroxyadamantan-4-yl)-3,4-dihydroquinoline-1(2H)-carboxamide]: the 50% inhibitory concentration (IC50) was found to be 0.9 nM.

In the case of `O=C(N[C@H]1C2CC3CC1C[C@](O)(C3)C2)N1CCCc2ccc(F)cc21` [Compound 3, 7-fluoro-N-(E-1-hydroxyadamantan-4-yl)-3,4-dihydroquinoline-1(2H)-carboxamide], half-maximal inhibition (IC50) required 1 nM. `O=C(N[C@H]1C2CC3CC1C[C@](O)(C3)C2)N1CCCc2cccc(F)c21` [Compound 4, 8-fluoro-N-(E-1-hydroxyadamantan-4-yl)-3,4-dihydroquinoline-1(2H)-carboxamide]: the concentration for half-maximal inhibition (IC50) stood at 1.1 nM. Regarding `COc1ccc2c(c1)N(C(=O)N[C@H]1C3CC4CC1C[C@](O)(C4)C3)CCC2` [Compound 5, N-(E-1-hydroxyadamantan-4-yl)-7-methoxy-3,4-dihydroquinoline-1(2H)-carboxamide], inhibition was half-maximal at 1.2 nM (IC50).

As to `Cc1ccc2c(c1)N(C(=O)N[C@H]1C3CC4CC1C[C@](O)(C4)C3)CCC2` [Compound 6, N-(E-1-hydroxyadamantan-4-yl)-7-methyl-3,4-dihydroquinoline-1(2H)-carboxamide], the half-inhibitory concentration (IC50) amounted to 0.6 nM.

Take `N#Cc1ccc2c(c1)CCCN2C(=O)N[C@H]1C2CC3CC1C[C@](O)(C3)C2` [Compound 7, 6-cyano-N-(E-1-hydroxyadamantan-4-yl)-3,4-dihydroquinoline-1(2H)-carboxamide]: the IC50 came out at 2.8 nM.

In turn, `CO[C@]12CC3CC(C1)[C@@H](NC(=O)N1CCCc4ccccc41)C(C3)C2` [Compound 8, N-(E-1-methoxyadamantan-4-yl)-3,4-dihydroquinoline-1(2H)-carboxamide] registered an IC50 of 0.9 nM.

`O=C(NC1C2CC3CC1CC(C(=O)O)(C3)C2)N1CCCc2ccccc21` (stereo not shown) [Compound 10b, E-4-[(3,4-dihydroquinolin-1(2H)-ylcarbonyl)amino]adamantane-1-carboxylic acid]: the midpoint of inhibition, the IC50, lay at 17.5 nM.

As to `NC(=O)C12CC3CC(C1)C(NC(=O)N1CCCc4ccccc41)C(C3)C2` (stereo not shown) [Compound 11b, N-(E-5-carbamoyladamantan-2-yl)-3,4-dihydroquinoline-1(2H)-carboxamide], the IC50 came to 0.8 nM. This IC50 lies about 22-fold lower than the previous one. Under `O=C(N[C@H]1C2CC3CC1C[C@](F)(C3)C2)N1CCCc2ccccc21` [Compound 12, N-(E-1-fluoroadamantan-4-yl)-3,4-dihydroquinoline-1(2H)-carboxamide] stands 1 nM. The figure for `O=C(N[C@H]1C2CC3CC1C[C@](O)(C3)C2)N1CCCCc2ccccc21` [Compound 13, N-(E-1-hydroxyadamantan-4-yl)-2,3,4,5-tetrahydro-1H-1-benzoazepine-1-carboxamide] is 1.2 nM. The figure for `CC1(C)CCN(C(=O)N[C@H]2C3CC4CC2C[C@](O)(C4)C3)c2ccccc21` [Compound 14, N-(E-1-hydroxyadamantan-4-yl)-4,4-dimethyl-3,4-dihydroquinoline-1(2H)-carboxamide] is 2 nM; for `O=C(N[C@H]1C2CC3CC1C[C@](O)(C3)C2)N1CCOc2ccccc21` [Compound 16, N-(E-1-hydroxyadamantan-4-yl)-2,3-dihydro-4H-1,4-benzoxazine 4-carboxamide] it is 1.5 nM.

`Cc1ccc2c(c1)N(C(=O)N[C@H]1C3CC4CC1C[C@](O)(C4)C3)CCO2` [Compound 17, N-(E-1-hydroxyadamantan-4-yl)-6-methyl-2,3-dihydro-4H-1,4-benzoxazine 4-carboxamide] displayed a 50% inhibitory concentration (IC50) of 0.8 nM. The figure for `O=C(OC1C2CC3CC1CC(O)(C3)C2)N1CCCc2ccccc21` (stereo not shown) [Compound 18b, E-5-hydroxyadamantan-2-yl 3,4-dihydroquinoline-1(2H)-carboxylate] is 0.9 nM; for `O=C(N[C@H]1C2CC3CC1C[C@](O)(C3)C2)N1CCOc2ccc(F)cc21` [Compound 19, 6-fluoro-N-(E-1-hydroxyadamantan-4-yl)-2,3-dihydro-4H-1,4-benzoxazine 4-carboxamide] it is 3.5 nM; for `COC(=O)c1ccc2c(c1)N(C(=O)N[C@H]1C3CC4CC1C[C@](O)(C4)C3)CCO2` [Compound 20, methyl 4-[(E-5-hydroxyadamantan-2-yl)carbamoyl]-3,4-dihydro-2H-1,4-benzoxazine-6-carboxylate] it is 6.7 nM. For `Cc1ccc2c(c1)OCCN2C(=O)N[C@H]1C2CC3CC1C[C@](O)(C3)C2` [Compound 23, N-(E-5-hydroxyadamantan-2-yl)-7-methyl-2,3-dihydro-4H-1,4-benzoxazine-4-carboxamide], the IC50 worked out at 1.1 nM. This IC50 lies about 6.1-fold lower than the previous one.

Compound `O=C(N[C@H]1C2CC3CC1C[C@](O)(C3)C2)N1CCOc2cc(F)ccc21` [Compound 24, 7-fluoro-N-(E-5-hydroxyadamantan-2-yl)-2,3-dihydro-4H-1,4-benzoxazine-4-carboxamide] gave a half-inhibitory concentration (IC50) of 1.1 nM. That is a single-digit nanomolar value. For the compound `Cc1cccc2c1N(C(=O)N[C@H]1C3CC4CC1C[C@](O)(C4)C3)CCO2` [Compound 25, N-(E-5-hydroxyadamantan-2-yl)-5-methyl-2,3-dihydro-4H-1,4-benzoxazine-4-carboxamide], half-maximal inhibition (IC50) was put at 1.1 nM. The figure for `O=C(N[C@H]1C2CC3CC1C[C@](O)(C3)C2)N1CCOc2ccc(C(F)(F)F)cc21` [Compound 26, N-(E-5-hydroxyadamantan-2-yl)-6-(trifluoromethyl)-2,3-dihydro-4H-1,4-benzoxazine-4-carboxamide] is 3.4 nM; for `O=C(N[C@H]1C2CC3CC1C[C@](O)(C3)C2)N1CCSc2ccccc21` [Compound 27, N-(E-5-hydroxyadamantan-2-yl)-2,3-dihydro-4H-1,4-benzothiazine-4-carboxamide] it is 0.7 nM. Under `O=C(N[C@H]1C2CC3CC1C[C@](O)(C3)C2)N1CCNc2ccccc21` [Compound 32, N-(E-5-hydroxyadamantan-2-yl)-3,4-dihydroquinoxaline-1(2H)-carboxamide hydrochloride] stands 1.4 nM; under `CN1CCN(C(=O)N[C@H]2C3CC4CC2C[C@](O)(C4)C3)c2ccccc21` [Compound 33, N-(E-5-hydroxyadamantan-2-yl)-4-methyl-3,4-dihydroquinoxaline-1(2H)-carboxamide hydrochloride], 1.4 nM; under `O=C(NC1C2CC3CC(C2)CC1C3)N1CCOc2ccccc21` (stereo not shown) [Compound 34, N-adamantan-2-yl-2,3-dihydro-4H-1,4-benzoxazine-4-carboxamide], 1.1 nM. The figure for `NC(=O)[C@]12CC3CC(C1)[C@@H](NC(=O)N1CCOc4ccccc41)C(C3)C2` [Compound 37b, N-[E-5-carbamoyladamantan-2-yl]-2,3-dihydro-4H-1,4-benzoxazine-4-carboxamide] is 0.6 nM. The compound `NC(=O)[C@]12CC3CC(C1)[C@@H](NC(=O)N1CCOc4ccc(F)cc41)C(C3)C2` [Compound 38, N-(E-5-carbamoyladamantan-2-yl)-6-fluoro-2,3-dihydro-4H-1,4-benzoxazine-4-carboxamide] registered an IC50 of 0.6 nM. The figure for `Cc1ccc2c(c1)N(C(=O)N[C@H]1C3CC4CC1C[C@](C(N)=O)(C4)C3)CCO2` [Compound 39, N-(E-5-carbamoyladamantan-2-yl)-6-methyl-2,3-dihydro-4H-1,4-benzoxazine-4-carboxamide] is 0.6 nM; for `CO[C@]12CC3CC(C1)[C@@H](NC(=O)N1CCOc4ccccc41)C(C3)C2` [Compound 40, N-(E-1-methoxyadamantan-4-yl)-2,3-dihydro-4H-1,4-benzoxazine-4-carboxamide] it is 1.1 nM. `CS(=O)(=O)[C@]12CC3CC(C1)[C@@H](NC(=O)N1CCOc4ccccc41)C(C3)C2` [Compound 41, N-(E-1-methylsulfonyladamantan-4-yl)-2,3-dihydro-4H-1,4-benzoxazine-4-carboxamide] came in with a half-inhibitory concentration (IC50) of 34.7 nM. As for `O=C(OC1C2CC3CC1CC(O)(C3)C2)N1CCOc2ccccc21` (stereo not shown) [Compound 42b, E-5-hydroxyadamantan-2-yl 2,3-dihydro-4H-1,4-benzoxazine-4-carboxylate], inhibition was half-maximal at 4.6 nM (IC50). Consider `Cc1ccc2c(c1)N(C(=O)OC1C3CC4CC1CC(O)(C4)C3)CCO2` (stereo not shown) [Compound 43b, E-5-hydroxyadamantan-2-yl 6-methyl-2,3-dihydro-4H-1,4-benzoxazine-4-carboxylate], for which the IC50 is 3.2 nM.

Compound `O=C(OC1C2CC3CC1CC(O)(C3)C2)N1CCOc2ccc(F)cc21` (stereo not shown) [Compound 44b, E-5-hydroxyadamantan-2-yl 6-fluoro-2,3-dihydro-4H-1,4-benzoxazine-4-carboxylate] registered an IC50 of 9.5 nM.
